These are literature values, as cited in US7163917B2, “Synthesis method of alanylglutamine” (priority 2002, dated 2007).

Molecules are shown by their SMILES. Peptide text beside a SMILES is read from it.

For data set [1] the following is noted: background statement.
The conditions of data set [2]: solution, storage, heating to sterilize.
The conditions of data set [3]: within human body; quickly degraded into composition amino acids.
For data set [4] the following is noted: healthy human body, long period intravenous drip.

For the molecule `CC(=O)N[C@@H](CCC(N)=O)C(=O)O` [acetylglutamine, reference compound], in data set [1], the “quantity absorbed that is excreted from urea” value is listed as 40%. Further, in data set [2], the “stability (in words)” value is recorded as “stable at heating”.
`NC(=O)CC[C@H](N)C(=O)O` [GLN, glutamine]: the “solubility (in words)” value was “low in solubility”.
Regarding `NCC(=O)N[C@@H](CCC(N)=O)C(=O)O` [glycylglutamine, L-glycyl-L-glutamine, reference compound] (H-Gly-Gln-OH), the “half-life (in words)” value in data set [3] is “short”.
For the molecule `C[C@H](N)C(=O)N[C@@H](CCC(N)=O)C(=O)O` [L-Ala-L-Gln, L-alanyl-L-glutamine] (H-Ala-Gln-OH), the “solubility relative to GLN monomer” value (synthesized by chemical method, after purification) was 20 times. The “stability (in words)” value in data set [2] was “stable in storage and at heating for sterilization”. The “half-life (in words)” value in data set [3] is listed as “short”. In data set [4], the kidney functions entry is “not influenced”; the “side effects and harmful reaction” value is “no side effects and harmful reaction occur”.
